Source: patent US20210386705A1, “APPLICATION OF CHIGLITAZAR AND RELATED COMPOUNDS THEREOF” (SHENZHEN CHIPSCREEN BIOSCIENCES CO., LTD., priority 2018, published 2021)
Where “and” joins values, the source holds several entries; their conditions need not be identical. Equal entries are not always repeated.

What was measured:
Assay type in all cases: cell-based, human
THP-1 cells = experiment: Inflammatory factor gene expression (MCP-1, TNFα) in PMA-activated THP-1 cells (qPCR); conditions: 6 hours, FIG. 5
Procedure: Human acute monocytic leukemia mononuclear cell line (THP-1) cells were activated by a certain concentration of phorbol esters (Phorbol-12-myristate-13-acetate, PMA) and differentiated into macrophages. Through this cell model, the activating effects of sodium chiglitazar and other compounds on the expression of THP-1 related inflammatory factors were detected.
THP-1 cells were seeded into 6-well plates with complete growth media for 24 hours, and then the culture media were replaced by fresh media containing PMA and the compound to be tested (sodium chiglitazar) or the reference compound GFT505 (PPARα/δ dual agonist), and the cells were cultured for 6 hours. The total RNAs of the samples were extracted, and cDNA templates were synthesized by reverse transcription reaction (Transcriptor First Strand cDNA Synthesis Kit, Roche). Thereafter, a conventional PCR amplification kit (FastStart Universal SYBR@ Green Master (ROX), Roche) was used for semi-quantitative gene expression detection on the ABI StepOnePlus real-time quantitative PCR instrument.
The relative expression change of the target genes was obtained by using the internal reference β-actin gene (ACTB) as the standard for normalization, compared with the untreated cell samples, and the relative expression change folds were calculated (FIG. 5).

[1] = system: monocytic cell line THP-1; experiment: MCP-1-induced chemotaxis of THP-1 cells (Transwell); conditions: MCP-1 10 ng/mL, compound 3 μmol/L; for Cell concentration in lower chamber, Mean value / Cell concentration in lower chamber, single replicates: 24 hours pretreatment, 4 hours migration; for Migration rate: solvent control + MCP-1 = 100
From the text: In an in vitro model, migration of the monocytic cell line THP-1 induced by a certain concentration of chemokines (such as monocyte chemotactic protein 1, MCP-1), and accordingly such in vivo process was mimicked. Transwell technology, according to the manufacturer's instructions from Corning Inc., is considered that Traswell is a kind of a polycarbonate membrane filter as well as a permeable holder. The polycarbonate membrane divides a culture chamber into upper and lower ones, where the components of the culture medium in the lower chamber can affect the growth, differentiation and movement of the cells in upper chamber. Finally, the cell migration ability can be reflected by staining and counting the cells in the lower chamber.
When cultured to the log phase stage, THP-1 cells were resuspended, adjusted the concentration, and seeded in 24-well plates, followed by being pretreated with the culture media containing the compound to be tested (sodium chiglitazar) or the reference compound GFT505, pioglitazone, or PPARγ single agonist rosiglitazone (all purchased from Selleck) for 24 hours. Transwells were used according to the manufacturer's instructions. The culture media containing chemokine MCP-1 were added to the lower chamber (i.e., the bottom of the 24-well plates), and the cell suspension was added to the upper chamber and cultured for 4 hours. Later, the cells cultured on the “ceiling” surface of the polycarbonate membrane were fixed and stained with crystal violet solution (FIG. 6), and then the number of cells in the lower chamber was counted (Table 3).

[2] = system: α-smooth muscle actin (α-SMA); experiment: TGF-β1-activated hepatic stellate cells, α-SMA gene expression (qPCR); conditions: TGF-β1 stimulation, 24 hours; FIG. 4
Procedure: Human primary hepatic stellate cells were seeded into 6-well plates with complete growth media (Stellate Cell Medium) for 24 hours, and then the culture media were replaced by fresh media (free of serum and growth factors) containing TGF-β1 and the compound to be tested (sodium chiglitazar) or the reference compound PPARγ/α dual agonist pioglitazone or PPARα/δ dual agonist GFT505 (both purchased from Selleck), and the cells were cultured for 24 hours. The total RNAs of the samples were extracted, and reverse transcription reaction was performed. Thereafter, a conventional PCR amplification kit (FastStart Universal SYBR@ Green Master (ROX), Roche) was used for further detection, where the PCR primers were designed with reference to the NCBI standard mRNA sequence of the target genes (Table 2). PCR reaction and detection were carried out on the ABI StepOnePlus real-time quantitative PCR instrument. By calculating the relative amount of transcripts was calculate by “Delta-Delta CT method” (Livak et al. Methods 2001), and using ACTB as the housekeeping gene for normalization and the average data of untreated human hepatic stellate cells as a reference control, the relative change folds of gene expression were obtained (FIG. 4).

SMILES	Inhibition of phorbol esters-mediated activation of monocyte and related gene expression (THP-1 cells)	Cell concentration in lower chamber, Mean value [1]	Cell concentration in lower chamber, single replicates [1]	Migration rate [1]	Effect on expression of α-smooth muscle actin [2]
CSc1ccc(C(=O)/C=C/c2cc(C)c(OC(C)(C)C(=O)O)c(C)c2)cc1 [GFT505]	significantly inhibit	28175 cells/ml	28443 cells/ml and 28511 cells/ml and 27572 cells/ml	102.55%	a certain inhibitory effect
CCc1ccc(CCOc2ccc(CC3SC(=O)NC3=O)cc2)nc1 (stereo not drawn) [pioglitazone]	–	17514 cells/ml	17529 cells/ml and 17416 cells/ml and 17597 cells/ml	61.80%	no effect
